Test results: patent US7868037B2 (PTC Therapeutics, Inc., priority 2004, dated 2011)
Where two headings read alike, the source gives them in different places.

Tests used:
[1] = system: HCV replicon; assay: microbe, parasite or virus in culture; format: cell-based, hepatitis C virus
[2] = Hepatitis C virus, read-out: Replicon IC50 μM

Compound: CCOc1ccc2c(C#N)c(-c3ccc(NC(=O)OC(C)C4CC4)cc3)n(C3CCC3)c2c1 (racemic) [Compound 1147, rac-[4-(3-cyano-1-cyclobutyl-6-ethoxy-1H-indol-2-yl)-phenyl]-carbamic acid 1-cyclopropyl-ethyl ester]
- melting point: 154 to 158 °C

Compound: CCn1cc(C#N)c2ccc(OC)cc21 [Compound 5, 1-ethyl-6-methoxy-1H-indole-3-carbonitrile]
- melting point: 64 to 66 °C
- IC50 [1, 2]: > 2 µM

Compound: N#Cc1c(-n2cccc2)[nH]c2cc([N+](=O)[O-])ccc12 [Compound 7, 6-nitro-2-pyrrol-1-yl-1H-indole-3-carbonitrile]
- melting point: 304 to 305 °C
- IC50 [1, 2]: 0.5 to 2 µM

Compound: CCOc1ccc2c(C#N)cn(CC)c2c1 [Compound 9, 6-ethoxy-1-ethyl-1H-indole-3-carbonitrile]
- melting point: 61 to 63 °C
- IC50 [1, 2]: > 2 µM

Compound: CCn1cc(C#N)c2ccc(Oc3cnccn3)cc21 [Compound 13, 1-ethyl-6-(pyrazin-2-yloxy)-1H-indole-3-carbonitrile]
- melting point: 161 to 164 °C
- IC50 [1, 2]: > 2 µM

Compound: CCn1cc(C#N)c2ccc(C(=O)Nc3ccccc3)cc21 [Compound 15, 3-cyano-1-ethyl-1H-indole-6-carboxylic acid phenylamide]
- melting point: 225 to 226 °C
- IC50 [1, 2]: > 2 µM

Compound: CCn1cc(C#N)c2ccc(NC(=O)OC(C)(C)C)cc21 [Compound 16, t-butyl(3-cyano-1-ethyl-1H-indol-6-yl)-carbamate]
- melting point: 175 to 177 °C
- IC50 [1, 2]: > 2 µM

Compound: CCc1nc(-c2cn(CC)c3cc(OC)ccc23)no1 [Compound 28, 1-ethyl-3-(5-ethyl-[1,2,4]oxadiazol-3-yl)-6-methoxy-1H-indole]
- melting point: 68 to 70 °C
- IC50 [1, 2]: 0.5 to 2 µM

Compound: CCn1cc(-c2ccccc2)c2cc([N+](=O)[O-])ccc21 [Compound 41, N-ethyl-3-phenyl-5-nitroindole]
- melting point: 155 to 175 °C
- IC50 [1, 2]: > 2 µM

Compound: COc1ccc(-n2cc(C#N)c3cc4c(cc32)OCO4)cc1 [Compound 44, 5-(4-methoxyphenyl)-5H-[1,3]dioxolo[4,5-f]indole-7-carbonitrile]
- IC50 [1, 2]: > 2 µM

Compound: CCOC(=O)c1c(C)n(-c2ccc(OC)cc2)c2ccc(OC(F)F)cc12 [Compound 49, ethyl 5-difluoromethoxy-1-(4-methoxyphenyl)-2-methyl-1H-indole-3-carboxylate]
- melting point: 89 to 90 °C
- IC50 [1, 2]: > 2 µM

Compound: CCc1nnc(-c2cn(CC)c3cc(OC)ccc23)o1 [Compound 54, 1-ethyl-6-methoxy-3-(5-ethyl-[1,3,4]oxadiazol-2-yl)-1H-indole]
- melting point: 99 to 101 °C
- IC50 [1, 2]: > 2 µM

Compound: CCn1cc(-c2ccon2)c2ccc(OC)cc21 [Compound 57, 1-ethyl-3-isoxazol-3-yl-6-methoxy-1-H-indole]
- IC50 ([1]; read-out: Replicon IC50): > 2 µM

Compound: CCn1cc(-c2nccs2)c2ccc(OC)cc21 [Compound 73, 1-ethyl-6-methoxy-3-thiazol-2-yl-1H-indole]
- IC50 [1, 2]: > 2 µM

Compound: CCn1c(C#Cc2ccc(NP(C)(C)=O)cc2)c(C#N)c2ccc(OC)cc21 [Compound 227, N-[4-(3-cyano-1-ethyl-6-methoxy-1H-indol-2-ylethynyl)-phenyl]-dimethylphosphinic amide]
- IC50 ([1]; read-out: Replicon IC50): 0.5 to 2 µM

Compound: CCn1c(-c2ccc(NC(=O)C3CC3)cc2)c(C#N)c2cc(OC)ccc21 [Compound 244]
- IC50 ([1]; read-out: Replicon IC50): 0.5 to 2 µM

Compound: CCn1c(-c2ccc3oc(=O)[nH]c3c2)c(C#N)c2ccc(OC)cc21 [Compound 332, 1-ethyl-6-methoxy-2-(2-oxo-2,3-dihydro-benzooxazol-5-yl)-1H-indole-3-carbonitrile]
- IC50 [1, 2]: > 2 µM

Compound: CCn1c(-c2ccc(NC(=O)NCCCl)cc2)c(C#N)c2ccc(OC)cc21 [Compound 442, 1-(2-chloroethyl)-3-[4-(3-cyano-1-ethyl-6-methoxy-1H-indol-2-yl)-phenyl]-urea]
- IC50 [1, 2]: > 2 µM

Compound: CCOC(=O)Nc1cccc(-c2c(C#N)c3ccc(OCCCN4CCCC4)cc3n2CC)c1 [Compound 530, {3-[3-cyano-1-ethyl-6-(3-pyrrolidin-1-yl-propoxy)-1H-indol-2-yl]-phenyl}-carbamic acid ethyl ester]
- IC50 ([1]; Hepatitis C virus, read-out: Replicon IC50): < 0.5 µM

Compound: C=Cn1c(-c2ccc(NS(=O)(=O)CCCCl)cc2)c(C#N)c2ccc(OC)cc21 [Compound 636]
- IC50 ([1]; read-out: Replicon IC50): 0.5 to 2 µM

Compound: CCn1c(-c2ccc(N3CCOC3=O)cc2)c(C#N)c2ccc(OC(C)C)cc21 [Compound 638, 1-ethyl-6-isopropoxy-2-[4-(2-oxo-oxazolidin-3-yl)-phenyl]-1H-indole-3-carbonitrile]
- IC50 [1, 2]: > 2 µM

Compound: CCn1c(-c2ccc(NS(=O)(=O)CCN3CCOCC3)cc2)c(C#N)c2ccc(OC)cc21 [Compound 653, 2-morpholin-4-yl-ethanesulfonic acid [4-(3-cyano-1-ethyl-6-methoxy-1H-indol-2-yl)-phenyl]amide]
- IC50 [1, 2]: > 2 µM

Compound: CCn1c(-c2ccc(N3CCNC3=O)cc2)c(C#N)c2ccc(OC)cc21 [Compound 771, 1-ethyl-6-methoxy-2-[4-(2-oxo-imidazolidin-1-yl)-phenyl]-1H-indole-3-carbonitrile]
- IC50 [1, 2]: < 0.5 µM

Compound: CCn1c(-c2ccc([N+](=O)[O-])cc2)c(C#N)c2cc(C(C)=O)c(OC)cc21 [Compound 844, 5-acetyl-1-ethyl-6-methoxy-2-(4-nitro-phenyl)-1H-indole-3-carbonitrile]
- IC50 [1, 2]: > 2 µM

Compound: CCn1c(-c2ccc([N+](=O)[O-])cc2)c(C#N)c2cc(CN3CCOCC3)c(OC)cc21 [Compound 845, 1-ethyl-6-methoxy-5-morpholin-4-ylmethyl-2-(4-nitro-phenyl)-1H-indole-3-carbonitrile]
- IC50 [1, 2]: > 2 µM

Compound: CCn1c(-c2ccc(NS(=O)(=O)CC)cc2)c(C#N)c2ccc(OC(F)(F)F)cc21 [Compound 881, ethanesulfonic acid [4-(3-cyano-1-ethyl-6-trifluoromethoxyindol-2-yl)phenyl]amide]
- melting point: 194 to 195 °C

Compound: CCn1c(-c2ccc(N3CCCS3(=O)=O)cc2)c(C#N)c2ccc(OC(F)(F)F)cc21 [Compound 903, 2-[4-(1,1-dioxidoisothiazolidin-2-yl)phenyl]-1-ethyl-6-(trifluoromethoxy)indole-3-carbonitrile]
- melting point: 230 to 232 °C

Compound: C=CCn1c(-c2ccc(N3CCCC3=O)cc2)c(C#N)c2ccc(OC)cc21 [Compound 938, 1-allyl-6-methoxy-2-[4-(2-oxopyrrolidin-1-yl)-phenyl]-1H-indole-3-carbonitrile]
- melting point: 147 to 148 °C

Compound: CCn1c(-c2ccc(N3CCCS3(=O)=O)cc2)c(C#N)c2ccc(OC3CC3)cc21 [Compound 1046, 6-cyclopropoxy-2-[4-(1,1-dioxo-1λ^6-isothiazolidin-2-yl)-phenyl]-1-ethyl-1H-indole-3-carbonitrile]
- melting point: 232 to 234 °C

Compound: CCn1c(-c2ccc(NC(=O)OC)cc2)c(C#N)c2ccc(OC(F)F)cc21 [Compound 1130, [4-(3-cyano-6-difluoromethoxy-1-ethyl-1H-indol-2-yl)-phenyl]-carbamic acid methyl ester]
- melting point: 177 to 178 °C

Compound: CCOc1ccc2c(C#N)c(-c3ccc(NC(=O)N4CCOCC4)cc3)n(C3CCC3)c2c1 [Compound 1166, morpholine-4-carboxylic acid [4-(3-cyano-1-cyclobutyl-6-ethoxy-1H-indol-2-yl)-phenyl]-amide]
- melting point: 260 to 266 °C

Compound: CCn1c(-c2ccc(NC(=O)C3CC3)cc2)c(C#N)c2ccc(OCCn3ccnc3)cc21 [Compound 1183, cyclopropanecarboxylic acid {4-[3-cyano-1-ethyl-6-(2-imidazol-1-yl-ethoxy)-1H-indol-2-yl]-phenyl}-amide]
- melting point: 202.3 to 205.9 °C

Compound: CCOc1ccc2c(C#N)c(-c3ccc(N(CC)CC)cc3)n(C3CCC3)c2c1 [Compound 1217, 1-Cyclobutyl-2-(4-diethylamino-phenyl)-6-ethoxy-1H-indole-3-carbonitrile]
- melting point: 135 to 141 °C

Compound: COc1ccc2c(C#N)c(-c3ccc(NC(=O)OC(C)C)cc3)n(C3CC3)c2c1 [Compound 1234, [4-(3-cyano-1-cyclopropyl-6-methoxyindol-2-yl)phenyl]carbamic acid isopropyl ester]
- melting point: 204 to 205 °C

Compound: CCNc1ccc(-c2c(C#N)c3ccc(OCC)cc3n2C2CCC2)cc1 [Compound 1239, 1-cyclobutyl-6-ethoxy-2-(4-ethylaminophenyl)-1H-indole-3-carbonitrile]
- melting point: 187 to 193 °C

Compound: CCOc1ccc2c(C#N)c(-c3ccc(N(CC)C(=O)OC4CCCC4)cc3)n(C3CCC3)c2c1 [Compound 1251, [4-(3-cyano-1-cyclobutyl-6-ethoxy-1H-indol-2-yl)-phenyl]-ethyl-carbamic acid cyclopentyl ester]
- melting point: 137 to 142 °C

Compound: CC(C)OC(=O)Nc1ccc(-c2c(C#N)c3ccc(OCCCn4cncn4)cc3n2C2CCC2)cc1 [Compound 1255, {4-[3-cyano-1-cyclobutyl-6-(3-[1,2,4]triazol-1-yl-propoxy)-1H-indol-2-yl]-phenyl}-carbamic acid isopropyl ester]
- melting point: 208 °C

Compound: CC(C)OC(=O)Nc1ccc(-c2c(C#N)c3ccc(OCCn4cncn4)cc3n2C2CCC2)cc1 [Compound 1276, {4-[3-cyano-1-cyclobutyl-6-(2-[1,2,4]triazol-1-yl-ethoxy)-1H-indol-2-yl]-phenyl}-carbamic acid isopropyl ester]
- melting point: 214 °C

Compound: CC(C)NC(=O)Nc1ccc(-c2c(C#N)c3ccc(OCCCn4cncn4)cc3n2C2CCC2)cc1 [Compound 1314, 1-{4-[3-cyano-1-cyclobutyl-6-(3-[1,2,4]triazol-1-yl-propoxy)-1H-indol-2-yl]-phenyl}-3-isopropyl-urea]
- melting point: 88 to 90 °C

Compound: CC(OC(=O)Nc1ccc(-c2c(C#N)c3ccc(OCCn4cncn4)cc3n2C2CCC2)cc1)C1CC1 (stereo not shown) [Compound 1329, {4-[3-cyano-1-cyclobutyl-6-(2-[1,2,4]triazol-1-yl-ethoxy)-1H-indol-2-yl]-phenyl}-carbamic acid 1-cyclopropyl-ethyl ester]
- melting point: 98 °C

Compound: N-(2-chloro-ethyl)-N′-[4-(3-cyano-1-ethyl-6-methoxy-1H-indol-2-yl)phenyl]sulfamide [Compound 724]
- IC50 ([1]; read-out: Replicon IC50): 0.5 to 2 µM

Compound: ethanesulfonic acid [4-(3-cyano-6-difluoromethoxy-1-ethyl-1H-indol-2-yl)-phenyl]-amide [Compound 519]
- IC50 ([1]; read-out: Replicon IC50): < 0.5 µM
